Experimental data as given in the NIST ThermoML archive (doi:10.1016/j.jct.2019.03.040).
± gives the expanded uncertainty stated by the source.

Assay: molar heat capacity at constant pressure
Conditions: 101.33 kPa, Liquid, Small sample (50 mg) DSC

For `CCCCOC(=O)CCC(C)=O` [butyl levulinate], the “molar heat capacity at constant pressure” value (336.16 K) was 344.27 ± 8.4 J/K/mol, the “molar heat capacity at constant pressure” value (336.66 K) was 345.65 ± 8.4 J/K/mol and the “molar heat capacity at constant pressure” value (337.16 K) was 345.3 ± 8.4 J/K/mol. For the same compound, the “molar heat capacity at constant pressure” value (337.66 K) was 345.3 ± 8.4 J/K/mol, the “molar heat capacity at constant pressure” value (338.16 K) was 346.34 ± 8.4 J/K/mol and the “molar heat capacity at constant pressure” value (338.66 K) was 346.51 ± 8.4 J/K/mol. The “molar heat capacity at constant pressure” value (339.16 K) was 345.82 ± 8.4 J/K/mol, the “molar heat capacity at constant pressure” value (339.66 K) was 346.34 ± 8.4 J/K/mol and the “molar heat capacity at constant pressure” value (340.16 K) was 347.03 ± 8.4 J/K/mol. The “molar heat capacity at constant pressure” value (340.66 K) was 346.17 ± 8.4 J/K/mol, the “molar heat capacity at constant pressure” value (341.16 K) was 346.68 ± 8.4 J/K/mol and the “molar heat capacity at constant pressure” value (341.66 K) was 346.17 ± 8.4 J/K/mol. For the same compound, the “molar heat capacity at constant pressure” value (342.16 K) was 347.03 ± 8.4 J/K/mol, the “molar heat capacity at constant pressure” value (342.66 K) was 346.68 ± 8.4 J/K/mol and the “molar heat capacity at constant pressure” value (343.16 K) was 347.72 ± 8.4 J/K/mol. For the same compound, the “molar heat capacity at constant pressure” value (343.66 K) was 347.37 ± 8.4 J/K/mol, the “molar heat capacity at constant pressure” value (344.16 K) was 347.37 ± 8.4 J/K/mol and the “molar heat capacity at constant pressure” value (344.66 K) was 347.54 ± 8.4 J/K/mol. For the same compound, the “molar heat capacity at constant pressure” value (345.16 K) was 348.06 ± 8.6 J/K/mol, the “molar heat capacity at constant pressure” value (345.66 K) was 348.23 ± 8.6 J/K/mol and the “molar heat capacity at constant pressure” value (346.16 K) was 347.89 ± 8.4 J/K/mol. The “molar heat capacity at constant pressure” value (346.66 K) was 348.58 ± 8.6 J/K/mol, the “molar heat capacity at constant pressure” value (347.16 K) was 348.23 ± 8.6 J/K/mol and the “molar heat capacity at constant pressure” value (347.66 K) was 349.09 ± 8.6 J/K/mol. For the same compound, the “molar heat capacity at constant pressure” value (348.16 K) was 348.92 ± 8.6 J/K/mol, the “molar heat capacity at constant pressure” value (348.66 K) was 349.27 ± 8.6 J/K/mol and the “molar heat capacity at constant pressure” value (349.16 K) was 349.27 ± 8.6 J/K/mol. For the same compound, the “molar heat capacity at constant pressure” value (349.66 K) was 349.78 ± 8.6 J/K/mol, the “molar heat capacity at constant pressure” value (350.16 K) was 349.78 ± 8.6 J/K/mol and the “molar heat capacity at constant pressure” value (350.66 K) was 350.13 ± 8.6 J/K/mol. For the same compound, the “molar heat capacity at constant pressure” value (351.16 K) was 349.95 ± 8.6 J/K/mol, the “molar heat capacity at constant pressure” value (351.66 K) was 349.61 ± 8.6 J/K/mol and the “molar heat capacity at constant pressure” value (352.16 K) was 350.13 ± 8.6 J/K/mol. The “molar heat capacity at constant pressure” value (352.66 K) was 348.58 ± 8.6 J/K/mol, the “molar heat capacity at constant pressure” value (353.16 K) was 348.23 ± 8.6 J/K/mol and the “molar heat capacity at constant pressure” value (353.66 K) was 348.58 ± 8.6 J/K/mol. For the same compound, the “molar heat capacity at constant pressure” value (354.16 K) was 349.44 ± 8.6 J/K/mol, the “molar heat capacity at constant pressure” value (354.66 K) was 349.95 ± 8.6 J/K/mol and the “molar heat capacity at constant pressure” value (355.16 K) was 349.95 ± 8.6 J/K/mol. The “molar heat capacity at constant pressure” value (355.66 K) was 350.64 ± 8.6 J/K/mol, the “molar heat capacity at constant pressure” value (356.16 K) was 350.13 ± 8.6 J/K/mol and the “molar heat capacity at constant pressure” value (356.66 K) was 350.13 ± 8.6 J/K/mol. The “molar heat capacity at constant pressure” value (357.16 K) was 351.5 ± 8.6 J/K/mol, the “molar heat capacity at constant pressure” value (357.66 K) was 350.99 ± 8.6 J/K/mol and the “molar heat capacity at constant pressure” value (358.16 K) was 351.5 ± 8.6 J/K/mol. For the same compound, the “molar heat capacity at constant pressure” value (358.66 K) was 351.68 ± 8.6 J/K/mol, the “molar heat capacity at constant pressure” value (359.16 K) was 351.85 ± 8.6 J/K/mol and the “molar heat capacity at constant pressure” value (359.66 K) was 351.85 ± 8.6 J/K/mol. The “molar heat capacity at constant pressure” value (360.16 K) was 352.02 ± 8.6 J/K/mol, the “molar heat capacity at constant pressure” value (360.66 K) was 351.68 ± 8.6 J/K/mol and the “molar heat capacity at constant pressure” value (361.16 K) was 352.37 ± 8.6 J/K/mol. The “molar heat capacity at constant pressure” value (361.66 K) was 353.05 ± 8.6 J/K/mol, the “molar heat capacity at constant pressure” value (362.16 K) was 352.71 ± 8.6 J/K/mol and the “molar heat capacity at constant pressure” value (362.66 K) was 352.88 ± 8.6 J/K/mol. The “molar heat capacity at constant pressure” value (363.16 K) was 352.02 ± 8.6 J/K/mol, the “molar heat capacity at constant pressure” value (363.66 K) was 352.71 ± 8.6 J/K/mol and the “molar heat capacity at constant pressure” value (364.16 K) was 353.23 ± 8.6 J/K/mol. For the same compound, the “molar heat capacity at constant pressure” value (364.66 K) was 353.57 ± 8.6 J/K/mol, the “molar heat capacity at constant pressure” value (365.16 K) was 353.05 ± 8.6 J/K/mol and the “molar heat capacity at constant pressure” value (365.66 K) was 353.4 ± 8.6 J/K/mol. For the same compound, the “molar heat capacity at constant pressure” value (366.16 K) was 353.4 ± 8.6 J/K/mol, the “molar heat capacity at constant pressure” value (366.66 K) was 354.6 ± 8.6 J/K/mol and the “molar heat capacity at constant pressure” value (367.16 K) was 353.57 ± 8.6 J/K/mol. The “molar heat capacity at constant pressure” value (367.66 K) was 353.57 ± 8.6 J/K/mol, the “molar heat capacity at constant pressure” value (368.16 K) was 354.09 ± 8.6 J/K/mol and the “molar heat capacity at constant pressure” value (368.66 K) was 353.92 ± 8.6 J/K/mol. For the same compound, the “molar heat capacity at constant pressure” value (369.16 K) was 353.57 ± 8.6 J/K/mol, the “molar heat capacity at constant pressure” value (369.66 K) was 353.4 ± 8.6 J/K/mol and the “molar heat capacity at constant pressure” value (370.16 K) was 354.95 ± 8.8 J/K/mol. For the same compound, the “molar heat capacity at constant pressure” value (370.66 K) was 354.78 ± 8.6 J/K/mol, the “molar heat capacity at constant pressure” value (371.16 K) was 354.09 ± 8.6 J/K/mol and the “molar heat capacity at constant pressure” value (371.66 K) was 354.78 ± 8.6 J/K/mol. For the same compound, the “molar heat capacity at constant pressure” value (372.16 K) was 355.29 ± 8.8 J/K/mol, the “molar heat capacity at constant pressure” value (372.66 K) was 355.81 ± 8.8 J/K/mol and the “molar heat capacity at constant pressure” value (373.16 K) was 354.78 ± 8.6 J/K/mol. The “molar heat capacity at constant pressure” value (373.66 K) was 355.81 ± 8.8 J/K/mol and the “molar heat capacity at constant pressure” value (374.16 K) was 355.98 ± 8.8 J/K/mol.
